The source of these data is patent US7538085B2, “Peptide deformylase inhibitors as novel antibiotics” (The Ohio State University Research Foundation, priority 2003, dated 2009).

In one test the test system is B. subtilis. In words: Antibacterial activity (cell growth, MIC). The format is cell-based. The following applies: Bacillus subtilis. On the procedure:
(§1) FIG. 5 Inhibition of B. subtilis (A) and E. coli (B) cell growth by inhibitor 2. An overnight culture was diluted 1000-fold into 2 mL of fresh LB medium containing the specified concentrations of inhibitor 2 and incubated at 37° C. Cell densities were measured at the specified times on a UV-vis spectrophotometer.
(§2) The in vitro antibacterial activity of the cyclic inhibitor was tested against E. coli and Bacillus subtilis, the representative Gram-negative and Gram-positive bacteria, respectively.
(§3) Antimicrobial Susceptibility Testing. For Escherichia coli and Bacillus subtilis, cell growth was monitored on the Lambda-20 UV/Vis spectrophotometer at 600 nm. A single bacterial colony from a plate culture was grown overnight in LB media and was diluted 1000-fold into 2 mL of fresh growth medium containing 0-64 μg/mL of test agent in a 5-mL glass test tube shaken at a speed of 250 rpm. Cell growth (at 37° C.) was monitored for 0-600 min.
(§4) Antibacterial Activity of PDF Inhibitors Inhibitors 2-7E were tested against two or more bacterial strains for antibacterial activities.

For a further test, the system named is E. coli. The test can be described thus: Antibacterial activity (cell growth, MIC). Format: cell-based. To be noted: Escherichia coli. On the procedure:
as §1, §2, §3, §4

In the next test the target is T1, MMP-1 (Homo sapiens, UniProt P03956).
T1 sequence (P03956 100-469): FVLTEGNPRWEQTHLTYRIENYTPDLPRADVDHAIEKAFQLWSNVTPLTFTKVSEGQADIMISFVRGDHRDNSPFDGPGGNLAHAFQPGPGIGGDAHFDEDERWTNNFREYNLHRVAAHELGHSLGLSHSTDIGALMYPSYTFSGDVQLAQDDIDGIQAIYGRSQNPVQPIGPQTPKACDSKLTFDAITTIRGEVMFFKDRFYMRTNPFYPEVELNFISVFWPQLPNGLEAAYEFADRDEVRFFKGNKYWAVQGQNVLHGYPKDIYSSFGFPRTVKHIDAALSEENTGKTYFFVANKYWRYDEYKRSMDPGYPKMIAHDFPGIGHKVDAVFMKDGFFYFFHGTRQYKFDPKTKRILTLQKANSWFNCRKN
In words: Inhibition of human matrix metalloproteases. The format is biochemical. To be noted: read-out: percentage of MMP-1 activity remaining. On the procedure: (§5) Inhibition of Metalloproteases (MMP) Several of the inhibitors were tested for inhibition of human matrix metalloproteases, which are often used as indicators of inhibitor selectivity (no inhibition of MMP is desired). Each inhibitor was tested at two different concentrations (1.0 and 10 μM). The values reported are the percentage of MMP activity remaining in the presence of added inhibitor.

The target of another test is T2, MMP2 (Homo sapiens, UniProt P08253).
T2 sequence (P08253 110-660): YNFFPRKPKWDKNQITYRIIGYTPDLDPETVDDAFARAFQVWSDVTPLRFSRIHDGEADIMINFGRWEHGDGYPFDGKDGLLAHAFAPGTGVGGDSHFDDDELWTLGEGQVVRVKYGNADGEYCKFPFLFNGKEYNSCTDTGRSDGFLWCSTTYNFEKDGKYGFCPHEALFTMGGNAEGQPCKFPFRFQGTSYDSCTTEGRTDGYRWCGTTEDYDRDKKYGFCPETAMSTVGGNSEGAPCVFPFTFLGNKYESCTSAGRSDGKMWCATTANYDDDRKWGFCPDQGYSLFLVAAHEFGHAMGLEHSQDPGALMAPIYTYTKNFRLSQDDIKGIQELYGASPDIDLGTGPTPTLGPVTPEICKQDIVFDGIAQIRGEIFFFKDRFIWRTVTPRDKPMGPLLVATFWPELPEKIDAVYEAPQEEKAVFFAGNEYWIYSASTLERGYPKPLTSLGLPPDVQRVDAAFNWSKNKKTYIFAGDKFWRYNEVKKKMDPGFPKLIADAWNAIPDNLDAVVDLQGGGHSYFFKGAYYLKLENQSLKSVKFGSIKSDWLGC
In words: Inhibition of human matrix metalloproteases. Format: biochemical. The following applies: read-out: percentage of MMP2 activity remaining. On the procedure:
as §5

The next test has as its target MMP-3 (Homo sapiens, UniProt P08254). The test can be described thus: Inhibition of human matrix metalloproteases. The format is biochemical. The following applies: read-out: percentage of MMP-3 activity remaining. On the procedure: as §5
The target of a further test is MMP-9 (Homo sapiens, UniProt P14780). In words: Inhibition of human matrix metalloproteases. The format is biochemical. To be noted: read-out: percentage of MMP-9 activity remaining. On the procedure: as §5
Chain of MMP-9 (P14780 94-707): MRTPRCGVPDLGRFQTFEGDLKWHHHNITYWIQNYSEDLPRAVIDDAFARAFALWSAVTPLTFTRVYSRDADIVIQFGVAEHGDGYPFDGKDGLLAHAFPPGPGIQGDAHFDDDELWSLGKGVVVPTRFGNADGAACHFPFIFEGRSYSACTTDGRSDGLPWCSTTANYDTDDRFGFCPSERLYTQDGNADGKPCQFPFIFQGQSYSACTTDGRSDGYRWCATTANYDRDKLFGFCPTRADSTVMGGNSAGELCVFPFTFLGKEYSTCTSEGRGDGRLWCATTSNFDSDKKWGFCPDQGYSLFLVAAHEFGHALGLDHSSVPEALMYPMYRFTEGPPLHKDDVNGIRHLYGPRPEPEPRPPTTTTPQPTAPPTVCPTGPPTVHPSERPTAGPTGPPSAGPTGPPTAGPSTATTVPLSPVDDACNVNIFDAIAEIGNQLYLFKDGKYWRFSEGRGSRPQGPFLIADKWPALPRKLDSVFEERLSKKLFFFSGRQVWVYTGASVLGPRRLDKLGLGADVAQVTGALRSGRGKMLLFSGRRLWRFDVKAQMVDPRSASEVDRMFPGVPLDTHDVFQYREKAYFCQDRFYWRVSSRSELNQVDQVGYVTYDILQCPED
In test [1] the target is T3, Co(II)-substituted E. coli PDF (Escherichia coli, UniProt P0A6K3).
T3 construct: made in house
T3 sequence (P0A6K3 whole entry): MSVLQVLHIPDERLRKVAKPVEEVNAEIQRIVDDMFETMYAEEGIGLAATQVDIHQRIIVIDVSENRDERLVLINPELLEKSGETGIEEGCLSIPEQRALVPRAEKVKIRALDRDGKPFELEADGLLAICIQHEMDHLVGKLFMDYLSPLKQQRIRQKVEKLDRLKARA
In words: PDF assay coupled to formate dehydrogenase. Format: biochemical.

In another test the target is T4, E. coli PDF (Escherichia coli, UniProt P0A6K3).
T4 construct: made in house
T4 sequence (P0A6K3 whole entry): as above
In words: Aminopeptidase assay of PDF inhibition. The format is biochemical. On the procedure: Aminopeptidase Assay of Compound 2 The inhibition constant was also determined independently using and aminopeptidase assay.^37 Assay reactions (total volume of 500 μL) containing 50 mM Hepes (pH 7.0), 150 mM NaCl, 8.0 nM E. coli PDF, and 0-50 nM inhibitor 2 were incubated on ice for 2 h. Prior to reaction initiation, the mixture was brought to room temperature for 10 min. The PDF reaction was then initiated by the addition of substrate formyl-Met-Leu-p-nitronilide (final concentration 110 μM) and allowed to proceed for 3 min at room temperature before being quenched by heating at 95° C. for 10 min (the inactivation process is usually complete within the first 30 s). After cooling to room temperature, 1.0 unit of Aeromonas aminopeptidase (AAP) was added to the solution and the mixture was incubated for 15 min at room temperature. The absorbance at 405 nm was measured on a UV-Vis spectrophotometer. […] For all end-point assay reactions, the substrate to product conversion was kept at <20%.

In a further test the test system is E. faecalis (ATCC 29212). In words: Antibacterial activity (MIC). The following applies: Enterococcus faecalis, ATCC29212. The format is cell-based. On the procedure:
as §4

The next test relates to S. aureus (ATCC 29213). The test can be described thus: Antibacterial activity (MIC). Format: cell-based. The following applies: Staphylococcus aureus, ATCC29213. As for the experimental part: as §4
The subject of test [2] is S. pneumoniae (ATCC 49619). In words: Antibacterial activity (MIC). To be noted: Streptococcus pneumoniae, ATCC49619. The format is cell-based. As for the experimental part: as §4
Test [3] deals with H. influenzae (ATCC 31517). In words: Antibacterial activity (MIC). The format is cell-based. The following applies: Haemophilus influenzae, ATCC31517. As for the experimental part:
as §4

Test [4] relates to S. pneumoniae (ATCC 6303). The test can be described thus: Antibacterial activity (MIC). Format: cell-based. To be noted: Streptococcus pneumoniae, ATCC6303. On the procedure: as §4
In test [5] the test system is S. pneumoniae (ATCC 6301). The test can be described thus: Antibacterial activity (MIC). Format: cell-based. The following applies: Streptococcus pneumoniae, ATCC6301. On the procedure:
as §4

Test [6] relates to M. catarrhalis (ATCC 37054). The test can be described thus: Antibacterial activity (MIC). The format is cell-based. To be noted: Moraxella catarrhalis, ATCC37054. As for the experimental part: as §4

≈ marks a conversion by molar mass, not a printed value. Where “and” joins values, the source holds several entries; their conditions need not be identical. Equal values may be shown once. Read-outs that look alike come from different tables or passages of the source. Bounds are passed on as bounds.

Chain of MMP-3 (P08254 100-477): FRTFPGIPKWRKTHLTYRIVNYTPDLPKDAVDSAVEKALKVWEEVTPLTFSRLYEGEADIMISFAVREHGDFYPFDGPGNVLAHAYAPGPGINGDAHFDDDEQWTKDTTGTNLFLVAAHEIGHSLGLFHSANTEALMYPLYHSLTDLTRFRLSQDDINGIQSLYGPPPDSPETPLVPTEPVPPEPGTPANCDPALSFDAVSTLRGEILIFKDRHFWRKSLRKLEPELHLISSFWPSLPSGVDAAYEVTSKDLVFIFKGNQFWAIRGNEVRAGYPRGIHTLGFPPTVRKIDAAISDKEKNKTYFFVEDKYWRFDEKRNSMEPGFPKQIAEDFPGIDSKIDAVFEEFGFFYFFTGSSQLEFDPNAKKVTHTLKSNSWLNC

For the compound `CC(C)(C)C1NC(=O)C(CN(O)C=O)CCCCCCCCCNC1=O` (stereo not drawn) [Compound 2, N-(3-tert-Butyl-2,5-dioxo-1,4-diaza-cyclopentadec-6-ylmethyl)-N-hydroxy-formamide], the MIC in the test on B. subtilis (read-out: MIC) was 0.7 to 1.4 µg/mL; in the test on B. subtilis (read-out: minimal inhibitory concentration (MIC)), 2 to 4 µM; in the test on E. coli, ~32 µM and ~12 µg/mL; with E. faecalis (ATCC 29212) it was more than 32 µg/mL; with S. aureus (ATCC 29213), 16 µg/mL (≈ 43.3 µM); in [2] it was 4 µg/mL (≈ 10.8 µM). For the same compound, the MIC in [3] was determined as 0.5 µg/mL (≈ 1.35 µM); in [4] it was 2 µg/mL (≈ 5.41 µM); in test [5], 4 µg/mL (≈ 10.8 µM); in test [6], 0.62 µg/mL (≈ 1.68 µM). Also, the remaining activity (in general, the share of the control activity or signal that is left under treatment) at 1 µM amounted to 93% on MMP-1 (inhibitor 1.0 μM), 96% at MMP2 (inhibitor 1.0 μM), 97% on MMP-3 (inhibitor 1.0 μM) and 95% at MMP-9 (inhibitor 1.0 μM). Further, the remaining activity at 10 µM at MMP-1 (inhibitor 10 μM) is 86%; on MMP2 (inhibitor 10 μM), 92%; at MMP-3 (inhibitor 10 μM), 91%; at MMP-9 (inhibitor 10 μM) it was 91%. Moreover, the Ki – broadly, a dissociation constant, usually derived from enzyme kinetics or from competition with a known ligand – in [1] is 0.67 ± 0.2 nM; at E. coli PDF it was 0.33 ± 0.15 nM. For the same compound, the “fold more potent against PDF than the acyclic parent/counterpart” value in test [1] (cyclic versus acyclic inhibitor) is approximately 10 fold.
